From publication PMC2776038 (Molecular cell, 2009)

Test system: XPD (Rad3) helicase
Test: single-molecule TIRF, Cy3 quenching by FeS cluster
Format: biochemical, Ferroplasma acidarmanus
Details: 3'-Cy3 ssDNA, 600 pM XPD, no RPA; 50 mM Tris-HCl pH 7.5, 3 mM MgCl2, 25 °C

- Km: 2.8 ± 1 µM
SMILES: Nc1ncnc2c1ncn2[C@@H]1O[C@H](COP(=O)(O)OP(=O)(O)OP(=O)(O)O)[C@@H](O)[C@H]1O [ATP]
